Data: patent publication US11292801B2, “Calpain modulators and therapeutic uses thereof” (Blade Therapeutics, Inc., priority 2016, dated 2022)

Key:
Human Calpain 2/NS1 = target: T1, Human Calpain 2/NS1 (Homo sapiens, UniProt P17655); assay: Biochemical inhibition of calpain 2, continuous fluorescence (FRET substrate) assay; conditions: mean, read-out: Human Calpain 2/NS1 IC50 (nM)_MEAN
T1 sequence (P17655 1-700): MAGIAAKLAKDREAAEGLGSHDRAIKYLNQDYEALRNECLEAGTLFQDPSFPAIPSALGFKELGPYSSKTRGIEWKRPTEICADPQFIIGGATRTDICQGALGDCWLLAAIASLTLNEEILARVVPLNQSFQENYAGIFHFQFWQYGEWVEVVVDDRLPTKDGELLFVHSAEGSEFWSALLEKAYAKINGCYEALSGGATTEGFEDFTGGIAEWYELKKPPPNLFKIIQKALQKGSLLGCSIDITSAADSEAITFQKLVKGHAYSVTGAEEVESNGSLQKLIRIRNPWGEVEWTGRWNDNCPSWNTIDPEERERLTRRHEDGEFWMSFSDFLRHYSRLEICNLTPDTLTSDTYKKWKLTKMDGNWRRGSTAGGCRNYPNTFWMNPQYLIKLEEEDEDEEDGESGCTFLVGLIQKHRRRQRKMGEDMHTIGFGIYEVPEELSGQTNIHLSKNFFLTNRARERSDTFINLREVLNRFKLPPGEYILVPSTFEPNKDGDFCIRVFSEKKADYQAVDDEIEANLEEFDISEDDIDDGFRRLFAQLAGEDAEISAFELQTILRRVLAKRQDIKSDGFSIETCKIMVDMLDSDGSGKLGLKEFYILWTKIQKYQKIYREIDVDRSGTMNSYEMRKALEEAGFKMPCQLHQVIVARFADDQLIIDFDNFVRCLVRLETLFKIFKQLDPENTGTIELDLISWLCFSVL
T1 sequence (P04632 1-268 partner): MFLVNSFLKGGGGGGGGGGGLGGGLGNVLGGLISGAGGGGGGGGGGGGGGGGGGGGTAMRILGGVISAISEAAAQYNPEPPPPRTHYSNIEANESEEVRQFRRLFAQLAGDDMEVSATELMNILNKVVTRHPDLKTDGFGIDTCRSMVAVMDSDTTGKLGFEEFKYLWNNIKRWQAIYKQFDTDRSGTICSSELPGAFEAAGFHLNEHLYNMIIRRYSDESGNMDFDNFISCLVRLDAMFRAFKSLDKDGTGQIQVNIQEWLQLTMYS
Method in brief: (§1)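 IC50 values come from 4-parameter fits of progress-curve rates (1-5 min slopes) against log inhibitor concentration. Calpain and inhibitor premixed at ambient 25C in Tris pH ~7.5/NaCl/DTT buffer, then CaCl2 and FRET substrate added to activate; 5-FAM fluorescence (ex 490/em 520) followed 10 min.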

Human Calpain 1/NS1 = target: T2, Human Calpain 1/NS1 (Homo sapiens, UniProt P07384); assay: Biochemical inhibition of calpain 1, continuous fluorescence (FRET substrate) assay; conditions: mean, read-out: Human Calpain 1/NS1 IC50 (nM)_MEAN
T2 sequence (P07384 1-714): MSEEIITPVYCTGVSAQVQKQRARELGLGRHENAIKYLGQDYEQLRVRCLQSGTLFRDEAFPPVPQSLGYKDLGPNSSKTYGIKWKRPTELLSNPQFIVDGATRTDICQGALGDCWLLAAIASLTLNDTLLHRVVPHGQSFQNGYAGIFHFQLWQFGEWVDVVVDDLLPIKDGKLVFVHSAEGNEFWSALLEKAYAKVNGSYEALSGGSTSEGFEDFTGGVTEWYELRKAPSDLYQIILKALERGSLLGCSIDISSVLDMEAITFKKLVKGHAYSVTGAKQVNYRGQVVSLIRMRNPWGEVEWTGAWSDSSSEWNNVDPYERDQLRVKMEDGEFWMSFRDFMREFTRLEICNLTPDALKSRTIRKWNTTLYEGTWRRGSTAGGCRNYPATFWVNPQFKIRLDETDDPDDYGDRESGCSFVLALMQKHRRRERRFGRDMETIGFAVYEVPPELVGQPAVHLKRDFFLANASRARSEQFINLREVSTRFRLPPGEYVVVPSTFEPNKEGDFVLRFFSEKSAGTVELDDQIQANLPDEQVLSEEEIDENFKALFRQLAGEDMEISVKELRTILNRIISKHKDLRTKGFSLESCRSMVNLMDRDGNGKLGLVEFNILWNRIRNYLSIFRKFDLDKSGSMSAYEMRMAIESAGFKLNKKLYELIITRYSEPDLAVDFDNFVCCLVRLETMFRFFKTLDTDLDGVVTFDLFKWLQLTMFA
T2 sequence (P04632 1-268 partner): T1 sequence (P04632 1-268 partner)
Method in brief: as §1

Human Calpain 9/NS1 = target: T3, Human Calpain 9/NS1 (Homo sapiens, UniProt O14815); assay: Biochemical inhibition of calpain 9, continuous fluorescence (FRET substrate) assay; conditions: mean, read-out: Human Calpain 9/NS1 IC50 (nM)_MEAN
T3 sequence (O14815 1-690): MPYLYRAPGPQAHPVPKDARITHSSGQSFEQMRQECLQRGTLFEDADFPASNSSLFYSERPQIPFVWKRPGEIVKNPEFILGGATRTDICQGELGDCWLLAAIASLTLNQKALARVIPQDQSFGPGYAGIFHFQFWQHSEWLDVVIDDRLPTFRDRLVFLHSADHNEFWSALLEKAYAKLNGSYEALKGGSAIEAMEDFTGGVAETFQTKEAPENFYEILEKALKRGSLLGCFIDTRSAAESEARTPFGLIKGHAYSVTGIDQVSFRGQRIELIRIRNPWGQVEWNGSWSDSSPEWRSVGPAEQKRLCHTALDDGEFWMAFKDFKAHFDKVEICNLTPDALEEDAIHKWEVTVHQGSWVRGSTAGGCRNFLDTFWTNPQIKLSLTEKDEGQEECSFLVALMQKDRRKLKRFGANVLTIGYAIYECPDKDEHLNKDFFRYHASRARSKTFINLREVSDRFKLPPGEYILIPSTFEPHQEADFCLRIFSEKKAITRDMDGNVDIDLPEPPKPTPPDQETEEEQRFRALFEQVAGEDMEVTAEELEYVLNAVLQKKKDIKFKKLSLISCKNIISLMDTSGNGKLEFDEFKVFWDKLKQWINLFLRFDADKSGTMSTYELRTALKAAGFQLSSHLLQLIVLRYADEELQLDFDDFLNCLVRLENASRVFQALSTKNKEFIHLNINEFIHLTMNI
T3 sequence (P04632 1-268 partner): T1 sequence (P04632 1-268 partner)
Method in brief: as §1

Structure (SMILES) | IC50 (Human Calpain 2/NS1) [nM] | IC50 (Human Calpain 1/NS1) [nM] | IC50 (Human Calpain 9/NS1) [nM]
O=C[C@@H]1Cc2ccc(cc2)OC/C=C/COc2ccc3c(cnn3-c3ncccc3C(=O)N1)c2 [Compound 66, (5S,E)-3-oxo-1^1H-8,13-dioxa-4-aza-1(1,5)-indazola-2(2,3)-pyridina-7(1,4)-benzenacyclotridecaphan-10-ene-5-carbaldehyde] | < 3000 | < 3000 | < 3000
O=C[C@@H]1Cc2ccc(cc2)OCCCCOc2ccc3c(cnn3-c3ncccc3C(=O)N1)c2 [Compound 67, (5S)-3-oxo-1^1H-8,13-dioxa-4-aza-1(1,5)-indazola-2(2,3)-pyridina-7(1,4)-benzenacyclotridecaphane-5-carbaldehyde] | < 3000 | < 3000 | < 3000
O=C(NC1CC1)C(=O)[C@@H]1Cc2ccc(cc2)OC/C=C/COc2ccc3c(cnn3-c3ncccc3C(=O)N1)c2 [Compound 69, N-cyclopropyl-2-oxo-2-((5S,E)-3-oxo-1^1H-8,13-dioxa-4-aza-1(1,5)-indazola-2(2,3)-pyridina-7(1,4)-benzenacyclotridecaphan-10-en-5-yl)acetamide] | < 3000 | 3000 to 10000 | < 3000
O=C[C@@H]1Cc2ccc(cc2)OCC=CCOc2ccc3nn(cc3c2)-c2ncccc2C(=O)N1 [Compound 71, (1^3Z,1^4E,5S)-3-oxo-1^2H-8,13-dioxa-4-aza-1(2,5)-indazola-2(2,3)-pyridina-7(1,4)-benzenacyclotridecaphan-10-ene-5-carbaldehyde] | < 3000 | < 3000 | < 3000
O=C[C@@H]1Cc2ccc(cc2)CCCCc2cccc(c2)-c2ccn(n2)-c2ncccc2C(=O)N1 [Compound 73, (10S,E)-12-oxo-2^1H-11-aza-1(2,3)-pyridina-2(1,3)-pyrazola-3(1,3),8(1,4)-dibenzenacyclododecaphane-10-carbaldehyde] | < 3000 | < 3000 | < 3000
O=C(NC1CC1)C(=O)[C@@H]1Cc2ccc(cc2)CCCCc2cccc(c2)-c2ccn(n2)-c2ncccc2C(=O)N1 [Compound 74, N-cyclopropyl-2-oxo-2-((10S,E)-12-oxo-2′H-11-aza-1(2,3)-pyridina-2(1,3)-pyrazola-3(1,3),8(1,4)-dibenzenacyclododecaphane-10-yl)acetamide] | < 3000 | < 3000 | < 3000

More lines, now with the values ahead:

IC50 (Human Calpain 2/NS1) [nM] | IC50 (Human Calpain 1/NS1) [nM] | IC50 (Human Calpain 9/NS1) [nM] | Structure (SMILES)
< 3000 | < 3000 | < 3000 | CCNC(=O)C(=O)[C@@H]1Cc2ccc(cc2)OC/C=C/COc2cccc(c2)-c2ccn(n2)-c2ncccc2C(=O)N1 [Compound 65, N-ethyl-2-oxo-2-((2^2E,6S,11E)-4-oxo-2^1H-9,14-dioxa-5-aza-3(2,3)-pyridina-2(3,1)-pyrazola-1(1,3),8(1,4)-dibenzenacyclotetradecaphan-11-en-6-yl)acetamide]
< 3000 | < 3000 | < 3000 | O=C(NC1CC1)C(=O)[C@@H]1Cc2ccc(cc2)OCCCCOc2ccc3c(cnn3-c3ncccc3C(=O)N1)c2 [Compound 68, N-cyclopropyl-2-oxo-2-((5S)-3-oxo-1^1H-8,13-dioxa-4-aza-1(1,5)-indazola-2(2,3)-pyridina-7(1,4)-benzenacyclotridecaphane-5-yl)acetamide]
< 3000 | < 3000 | < 3000 | O=C(NC1CC1)C(=O)[C@@H]1Cc2ccc(cc2)OC/C=C/COc2cccc(c2)-c2ccn(n2)-c2ncccc2C(=O)N1 [Compound 70, N-cyclopropyl-2-oxo-2-((2^2E,6S,11E)-4-oxo-2^1H-9,14-dioxa-5-aza-3(2,3)-pyridina-2(3,1)-pyrazola-1(1,3),8(1,4)-dibenzenacyclotetradecaphan-11-en-6-yl)acetamide]
< 3000 | < 3000 | < 3000 | O=C(NC1CC1)C(=O)[C@@H]1Cc2ccc(cc2)OCCCCOc2cccc(c2)-c2ccn(n2)-c2ncccc2C(=O)N1 [Compound 72, N-cyclopropyl-2-oxo-2-((6S,E)-4-oxo-2^1H-9,14-dioxa-5-aza-3(2,3)-pyridina-2(3,1)-pyrazola-1(1,3),8(1,4)-dibenzenacyclotetradecaphane-6-yl)acetamide]
